{"source": "patent US20030054980A1", "about": "“Ceruloplasmin and uses thereof in neurodegenerative related conditions” (priority 2000, published 2003)", "molecules": {"B1": {"name": "Bovine serum amineoxidase: 180 kDa circulating non-blue copper protein (protein, UniProt Q29437 17-762, looked up)", "Primary amine oxidase, liver …": "REEGGVGSEEGVGKQCHPSLPPRCPSRSPSDQPWTHPDQSQLFADLSREELTTVMSFLTQQLGPDLVDAAQARPSDNCVFSVELQLPPKAAALAHLDRGSPPPAREALAIVFFGGQPQPNVTELVVGPLPQPSYMRDVTVERHGGPLPYYRRPVLLREYLDIDQMIFNRELPQAAGVLHHCCSYKQGGQKLLTMNSAPRGVQSGDRSTWFGIYYNITKGGPYLHPVGLELLVDHKALDPADWTVQKVFFQGRYYENLAQLEEQFEAGQVNVVVIPDDGTGGFWSLKSQVPPGPTPPLQFHPQGPRFSVQGNRVASSLWTFSFGLGAFSGPRVFDVRFQGERLAYEISLQEAGAVYGGNTPAAMLTRYMDSGFGMGYFATPLIRGVDCPYLATYMDWHFVVESQTPKTLHDAFCVFEQNKGLPLRRHHSDFLSHYFGGVAQTVLVFRSVSTMLNYDYVWDMVFYPNGAIEVKLHATGYISSAFLFGAARRYGNQVGEHTLGPVHTHSAHYKVDLDVGGLENWVWAEDMAFVPTAIPWSPEHQIQRLQVTRKQLETEEQAAFPLGGASPRYLYLASKQSNKWGHPRGYRIQTVSFAGGPMPQNSPMERAFSWGRYQLAITQRKETEPSSSSVFNQNDPWTPTVDFSDFINNETIAGKDLVAWVTAGFLHIPHAEDIPNTVTVGNGVGFFLRPYNFFDQEPSMDSADSIYFREGQDAGSCEINPLACLPQAATCAPDLPVFSHGGYPEY"}, "B2": {"name": "SBTI: soybean trypsin inhibitor, serine protease inhibitor (protein, UniProt P01070 25-205, looked up)", "Trypsin inhibitor A": "DFVLDNEGNPLENGGTYYILSDITAFGGIRAAPTGNERCPLTVVQSRNELDKGIGTIISSPYRIRFIAEGHPLSLKFDSFAVIMLCVGIPTEWSVVEDLPEGPAVKIGENKDAMDGWFRLERVSDDEFNNYKLVFCPQQAEDDKCGDIGISIDHDDGTRRLVVSKNKPLVVQFQKLDKESL"}}, "key": {"[1]": {"system": "P19 neurons", "assay": "Pro-aggregative effect on P19 neurons (culture morphology, surfaces not occupied by cells)", "settings": "for Morphological change: 24 h; for induction of neuronal aggregation (text summary of Table 1): concentrations of Table 1, copper equivalent to (His2Cu: or higher than) that in CP", "method": "Undifferentiated P19 cells were propagated in complete medium containing alpha-modified Eagle's minimal essential medium (α-MEM; Gibco-BRL, Burlington, Ontario) supplemented with 10% heat-inactivated fetal bovine serum (Cansera International, Rexdale, Ontario), 2.5 U/mL penicillin and 2.5 μg/mL streptomycin (Sigma-Aldrich). Cells were maintained at 37° C. in a humidified atmosphere of 5% CO2 and passaged every two days on non-coated tissue culture dishes. To achieve neuronal differentiation, P19 cells were seeded in bacteriological-grade petri dishes at a density of 0.9×10^5 cells/mL, and grown as aggregates, during 4 days, in complete medium containing 0.5 μM RA (Sigma-Aldrich). At day 4, aggregates were dissociated by incubation for 3 min, at room temperature, with 0.025% trypsin (250 Nα-benzoyl-L-Arg-ethyl ester (BAEE) unit per 15×10^6 cells; Sigma-Aldrich) in phosphate buffer saline (PBS) containing 1 mM EDTA, and digestion stopped by adding an equal volume of complete α-MEM medium. The resulting cellular suspensions were passaged by pipetting and subjected to two wash-and-centrifuge cycles, and individualized cells (neurons) were transferred (1500-1800 cells/mm^2) to gelatinized tissue culture dishes or multiwell plates containing NEUROBASAL™ medium (Gibco-BRL) supplemented with B27™ supplement (Gibco-BRL) and 0.5 mM L-glutamine, but no RA. Gelatinization of culture surfaces was done by incubation with 0.1% gelatin for 0.5 h at 22° C., followed by several washes with PBS to remove unbound protein. For comparison purposes, solutions of 2% gelatin, 10 μg/mL fibronectin, 10 μg/mL laminin and 5 mg/mL CP (in this case, in a proportion of 50 μL per cm^2) were also used for coating. Differentiation to fibroblasts was done by culturing P19 cells as monolayers, for 4 days, in complete medium containing RA. Cells were trypsinized every 2 days and replated in non-coated tissue culture dishes each time. From day 4 and after, cells were cultured in complete medium without RA.\nAt 3, 24 or 48 h after plating, P19 neurons were incubated for 24 h in a fresh provision of supplemented Neurobasal medium not containing (control) or containing CP or another agent. Protease inhibitors were added 1 h before CP. Freshly individualized cells of the other cell types tested were let to adhere to culture surfaces, in their normal culture medium (containing serum), for times indicated: undifferentiated P19 cells and their fibroblast derivatives (both for 3 and 24 h), rat smooth muscle cells (7 days), and rat hepatocytes (3 h). Afterwards, cells were extensively rinsed with PBS and incubated for 24 h in supplemented Neurobasal medium in the absence or presence of CP. After treatment with CP or other agents, cells were examined for morphology, viability, ALAMARBLUE™ dye penetration and/or apoptosis, as indicated below.\nMorphological analysis was done by inversion microscopy (NIKKON™ TMS), using phase-contrast objectives and a camera (NIKKON™ F70)."}, "[2]": {"system": "P19 neurons", "assay": "Inhibition of CP-induced neuronal aggregation", "assay_type": "cell-based, mouse", "settings": "for inhibition of CP-induced aggregation, inhibitors tested individually: 6-7 TIU/mL or half this concentration, 3.8 μM CP; for inhibition of CP-induced neuronal aggregation: 6-7 trypsin inhibitory U/mL each, added 1 h before 3.8 μM CP, morphology and dye penetration analysis", "experimental": "Protease inhibitors were added 1 h before CP.\nDay 4 P19 neurons were plated in 24- or 48-well plates in prevision of dye penetration analysis. After treatment with CP or other agents, cells were incubated for 5 h with 500 μL of a solution containing one part of ALAMARBLUE™ (Medicorp Inc., Montreal, Quebec, Canada) and nine parts of fresh supplemented Neurobasal medium. This dye is reduced to a fluorescent derivative by metabolic activity of living cells. At the end of incubation, the fluorescence of the culture medium was monitored at 590 nm, using 540 nm as the excitation wavelength."}, "[3]": {"system": "resorufin-labeled casein", "assay": "Detection of proteolytic activity with resorufin-labeled casein", "assay_type": "biochemical", "settings": "culture media conditioned by cells, in all cases", "experimental": "Evaluation of proteolytic activity in CP preparations or in cell culture media was done with resorufin-labeled casein (universal protease chromogenic substrate; Roche Diagnostics). Aliquots (100 μL) of CP solutions (about 13 mg/mL) or of culture media of cells after 24 h treatment with and without CP were incubated at 37° C. for various times (up to 22 h), with 50 μL of resorufin-labeled casein solution provided by the manufacturer and 50 μL of 0.2 M Tris-HCl, pH 7.8 containing 0.02 M CaCl2. The reaction was stopped by adding 480 μL of 5% trichloroacetic acid. After 10 min of incubation at 37° C. and 5 min of centrifugation, 400 μL of the resulting supernatants were mixed with 600 μL of 0.5 M Tris-HCl, pH 8.8, and absorbance read at 574 nm. Alternately, resorufin-labeled casein was added to culture media (50 μL substrate for each 150 μL supplemented NEUROBASAL™ medium) while cells were being treated with CP. Culture media were removed at various times (up to 24 h) and subjected to acid precipitation and spectrophotometric measurement as indicated above. Trypsin (10100 U BAEE/mg; Sigma-Aldrich) was used as a standard."}, "[4]": {"settings": "1.14 to 49.2 μM, day 4 P19 neurons on gelatin"}}, "data": [{"molecule": "NC(Cc1c[nH]cn1)C(=O)[O-].NC(Cc1c[nH]cn1)C(=O)[O-].[Cu+2]", "note": "(stereo not shown) [(His)2Cu complex]", "values": [{"measurement": "Morphological change", "setting": "[1]; 23 to 390 μM", "result": "no aggregation"}, {"measurement": "induction of neuronal aggregation (text summary of Table 1)", "setting": "[1]", "result": "did not induce neuronal aggregation"}]}, {"molecule": "[Cl][Cu][Cl]", "note": "[CuCI2, CuCl2]", "values": [{"measurement": "Morphological change", "setting": "[1]; 246 μM", "result": "cell death"}, {"measurement": "Morphological change", "setting": "[1]; [4]", "result": "no aggregation"}, {"measurement": "induction of neuronal aggregation (text summary of Table 1)", "setting": "[1]", "result": "did not induce neuronal aggregation"}]}, {"molecule": "O=S(=O)([O-])[O-].[Cu+2]", "note": "[CuSO4]", "values": [{"measurement": "Morphological change", "setting": "[1]; 246 μM", "result": "cell death"}, {"measurement": "Morphological change", "setting": "[1]; [4]", "result": "no aggregation"}, {"measurement": "induction of neuronal aggregation (text summary of Table 1)", "setting": "[1]", "result": "did not induce neuronal aggregation"}]}, {"molecule": "Bovine serum albumin: serum protein that can transport copper ions", "values": [{"measurement": "inhibition of CP-induced neuroaggregation", "setting": "[2]; albumin at 3.6 μM", "result": "did not inhibit"}, {"measurement": "Morphological change", "setting": "[1]; 0.3 to 7.5 μM", "result": "no aggregation"}, {"measurement": "induction of neuronal aggregation (text summary of Table 1)", "setting": "[1]", "result": "failed to induce-aggregation"}]}, {"molecule": "aprotinin", "values": [{"measurement": "hydrolysis of resorufin-labeled casein", "setting": "[3]", "result": "completely abolished hydrolysis"}, {"measurement": "inhibition of CP-induced aggregation, inhibitors tested individually", "setting": "[2]", "result": "Complete inhibition of aggregation"}, {"measurement": "inhibition of CP-induced neuronal aggregation", "setting": "[2]", "result": "completely hindered"}]}, {"molecule": "B1", "values": [{"measurement": "Morphological change", "setting": "[1]; 0.28 to 0.56 μM", "result": "no aggregation"}, {"measurement": "induction of neuronal aggregation (text summary of Table 1)", "setting": "[1]", "result": "did not induce aggregation"}]}, {"molecule": "B2", "values": [{"measurement": "hydrolysis of resorufin-labeled casein", "setting": "[3]", "result": "completely abolished hydrolysis"}, {"measurement": "inhibition of CP-induced aggregation, inhibitors tested individually", "setting": "[2]", "result": "Complete inhibition of aggregation"}, {"measurement": "inhibition of CP-induced neuronal aggregation", "setting": "[2]", "result": "completely hindered"}]}]}
